This is an account of results in ChEMBL document CHEMBL1201862, “PubChem BioAssay data set” (2004).

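Cells were grown in 96-well plates and exposed to each compound for 48 hours at five concentrations; endpoints were interpolated linearly between bracketing concentrations, or set to the highest concentration if not reached. GI50 marks 50% less growth.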 Calls of active or inactive are those of the source. Cut-off read from the data, not from the text of the source: active = GI50 up to about 1.1 µM and inactive = higher. Where only a bound is given, the exact number is not on record here.

Some test systems named below: HOP-92; LOX IMVI; 786-0; RPMI-8226; MDA-N; SK-OV-3; SK-MEL-28; M14; RXF 393; COLO 205; HCC 2998; SF-295; MDA-MB-435; CAKI-1; EKVX; SN12C; A549; ACHN; NCI-H522; SNB-75.
Common to all, as to assay: NCI anticancer screen, dose series, 48 h

For the molecule `C=C1C(=O)OC2/C=C(/C)C(OC(C)=O)C/C=C(\C)C(OC(=O)C3(C)OC3C)C(O)C12` (stereo not given), the GI50 in the assay with HOP-92 is > 100 µM (inactive); in the assay with LOX IMVI, 30.8 µM (inactive); with 786-0 it was 47.4 µM (inactive); in the assay with RPMI-8226, 43.9 µM (inactive); in the assay with MDA-N, > 100 µM (inactive); in the assay on SK-OV-3, > 100 µM (inactive). The GI50 in the assay on SK-MEL-28 is 71 µM (inactive); in the assay with M14, > 100 µM (inactive); in the assay with RXF 393, > 100 µM (inactive); in the assay on COLO 205, 55.7 µM (inactive); in the assay on HCC 2998, > 100 µM (inactive); in the assay on SF-295, > 100 µM (inactive). Besides, the GI50 in the assay on MDA-MB-435 is > 100 µM (inactive); with CAKI-1 it was 65.8 µM (inactive); in the assay on EKVX, > 100 µM (inactive); in the assay on SN12C it was > 100 µM (inactive); in the assay with A549, > 100 µM (inactive); in the assay with ACHN, > 100 µM (inactive). The GI50 was 14.9 µM (inactive) with NCI-H522 and 97.7 µM (inactive) in the assay on SNB-75.
With `O=C1c2ccccc2C(=O)N1CCCC(=O)n1cc(F)c(=O)[nH]c1=O`, the GI50 with HOP-92 is > 21.4 µM (inactive); in the assay on LOX IMVI it was 6.18 µM (inactive); in the assay on 786-0, 14.4 µM (inactive); with RPMI-8226 it was 5.06 µM (inactive); in the assay on MDA-N it was 16.1 µM (inactive); in the assay with SK-OV-3 it was > 91 µM (inactive). The GI50 in the assay on SK-MEL-28 is > 100 µM (inactive); in the assay with M14 it was 14.5 µM (inactive); in the assay with RXF 393, > 47.4 µM (inactive); in the assay on COLO 205, 6.62 µM (inactive); in the assay with HCC 2998, 0.82 µM (active); in the assay on SF-295 it was 49.1 µM (inactive). For the same molecule, the GI50 with MDA-MB-435 was > 37.1 µM (inactive); in the assay on CAKI-1, 6.05 µM (inactive); in the assay on EKVX, > 58.3 µM (inactive); with SN12C, > 26.1 µM (inactive); with A549 it was 3.6 µM (inactive); in the assay with ACHN it was 15.8 µM (inactive). Moreover, the GI50 in the assay with NCI-H522 was 37.4 µM (inactive); in the assay with SNB-75, 37 µM (inactive).
Take `CC1=CC(=O)[C@@H](O)[C@]2(C)[C@H]3[C@@]4(O)OC[C@]35[C@H]([C@@H](C)[C@H]4O)[C@@H](OC(=O)C(C)(C)CO)C(=O)O[C@@H]5C[C@@H]12`: the GI50 in the assay on HOP-92 was 0.0887 µM (active); with LOX IMVI, < 0.012 µM (active); in the assay on 786-0, 0.16 µM (active); in the assay on RPMI-8226, 0.0158 µM (active); in the assay with MDA-N, 0.0769 µM (active); in the assay on SK-OV-3, 4.31 µM (inactive). Moreover, the GI50 in the assay on SK-MEL-28 was 0.0478 µM (active); in the assay on M14, < 0.0431 µM (active); in the assay on RXF 393, 0.237 µM (active); in the assay on COLO 205, 1.73 µM (inactive); in the assay with HCC 2998 it was 0.0476 µM (active); in the assay on SF-295, 0.229 µM (active). Further, the GI50 in the assay with MDA-MB-435 was 0.12 µM (active); in the assay with CAKI-1, 1.08 µM (active); in the assay with EKVX, 0.741 µM (active); in the assay with SN12C, 0.191 µM (active); in the assay on A549, 2.51 µM (inactive); in the assay with ACHN it was 0.208 µM (active). In addition, the GI50 in the assay on NCI-H522 was < 0.0151 µM (active); with SNB-75 it was 0.045 µM (active).
For the molecule `O=c1oc2ccccc2cc1-c1csc(Nc2ccc(F)cc2)n1`, the GI50 with HOP-92 was 6.53 µM (inactive); with LOX IMVI it was 4.7 µM (inactive); with 786-0, 1.79 µM (inactive); in the assay on RPMI-8226, 0.216 µM (active); with MDA-N, 4.66 µM (inactive); with SK-OV-3 it was 5.77 µM (inactive). Moreover, the GI50 is 0.382 µM (active) in the assay with SK-MEL-28; 4.25 µM (inactive) in the assay with M14; 6.56 µM (inactive) in the assay on RXF 393; 4.47 µM (inactive) with COLO 205; 5.48 µM (inactive) with HCC 2998; 3.62 µM (inactive) in the assay on SF-295. The GI50 with MDA-MB-435 was 4.32 µM (inactive); in the assay with CAKI-1, 2.94 µM (inactive); in the assay on EKVX, 1.97 µM (inactive); in the assay on SN12C, 3.01 µM (inactive); with A549 it was 1.67 µM (inactive); in the assay with ACHN, 8.55 µM (inactive). Also, the GI50 in the assay on NCI-H522 was 1.91 µM (inactive); in the assay on SNB-75 it was 2.07 µM (inactive).
For the molecule `N=C(N)CCNC(=O)C1CCC(N)=N1` (stereo not given), the GI50 with HOP-92 is 11.6 µM (inactive); in the assay on LOX IMVI, 15.8 µM (inactive); in the assay with 786-0, 13.1 µM (inactive); with RPMI-8226, 29.9 µM (inactive); in the assay with MDA-N, 21.4 µM (inactive); in the assay with SK-OV-3 it was 9.59 µM (inactive). For the same molecule, the GI50 in the assay with SK-MEL-28 is 19.2 µM (inactive); in the assay on M14 it was 24.7 µM (inactive); in the assay with RXF 393, 35.1 µM (inactive); in the assay with COLO 205, 5.61 µM (inactive); in the assay on HCC 2998, 4.95 µM (inactive); in the assay on SF-295, 18.9 µM (inactive). For the same molecule, the GI50 with MDA-MB-435 is 31.5 µM (inactive); in the assay on CAKI-1, 10.6 µM (inactive); with EKVX, 9.12 µM (inactive); in the assay with SN12C, 5.27 µM (inactive); in the assay with A549, 6.49 µM (inactive); with ACHN, 13.8 µM (inactive). Besides, the GI50 is 23 µM (inactive) with NCI-H522 and 12.2 µM (inactive) in the assay with SNB-75.
As for `COc1cc(NS(C)(=O)=O)ccc1Nc1c2ccccc2nc2ccccc12` [AMSACRINE], the GI50 in the assay on HOP-92 was 0.524 µM (active); with LOX IMVI, 0.179 µM (active); in the assay with 786-0, 0.15 µM (active); in the assay on RPMI-8226, 0.352 µM (active); with MDA-N, 3.32 µM (inactive); in the assay on SK-OV-3, 0.398 µM (active). The GI50 was 2.59 µM (inactive) in the assay on SK-MEL-28; 0.266 µM (active) in the assay on M14; 1.55 µM (inactive) with RXF 393; 2.86 µM (inactive) in the assay with COLO 205; 1.24 µM (inactive) in the assay with HCC 2998; 0.104 µM (active) in the assay with SF-295. In addition, the GI50 with MDA-MB-435 is 4.54 µM (inactive); with CAKI-1, 0.0973 µM (active); in the assay on EKVX it was 2.08 µM (inactive); in the assay with SN12C, 0.131 µM (active); with A549, 0.049 µM (active); with ACHN, 0.0525 µM (active). Moreover, the GI50 in the assay on NCI-H522 was 0.668 µM (active); with SNB-75 it was 0.403 µM (active).
In the case of `Nc1nc(I)nc2c1ncn2C1OC(COS(N)(=O)=O)C(O)C1O` (stereo not given), the GI50 in the assay with HOP-92 was < 0.0142 µM (active); in the assay on LOX IMVI, < 0.0116 µM (active); in the assay on 786-0, < 0.0106 µM (active); in the assay on RPMI-8226, 0.0179 µM (active); in the assay with MDA-N, < 0.01 µM (active); in the assay on SK-OV-3, < 0.0166 µM (active). Further, the GI50 with SK-MEL-28 was < 0.01 µM (active); in the assay on M14, < 0.0104 µM (active); in the assay with RXF 393, 0.0148 µM (active); in the assay on COLO 205, < 0.01 µM (active); with HCC 2998 it was < 0.0127 µM (active); with SF-295, 0.0393 µM (active). Further, the GI50 was < 0.01 µM (active) in the assay with MDA-MB-435; 0.0336 µM (active) with CAKI-1; < 0.0121 µM (active) with EKVX; < 0.01 µM (active) in the assay with SN12C; 0.0275 µM (active) with A549; < 0.0117 µM (active) in the assay on ACHN. In addition, the GI50 in the assay with NCI-H522 and in the assay with SNB-75 was < 0.01 µM (active) throughout.
On to `CCOC(=O)c1c(Sc2ccc([N+](=O)[O-])cc2[N+](=O)[O-])nc2c3ccccc3ccn12`, for which the GI50 with HOP-92 is 13.9 µM (inactive); in the assay on LOX IMVI, > 100 µM (inactive); in the assay on 786-0, 5.6 µM (inactive); with RPMI-8226, 36.3 µM (inactive); in the assay with MDA-N it was > 100 µM (inactive); with SK-OV-3, 15.9 µM (inactive). For the same molecule, the GI50 in the assay with SK-MEL-28 is > 100 µM (inactive); in the assay on M14, > 100 µM (inactive); in the assay with RXF 393 it was 21 µM (inactive); in the assay with COLO 205, > 100 µM (inactive); in the assay on HCC 2998 it was > 28.6 µM (inactive); in the assay with SF-295, 28.7 µM (inactive). For the same molecule, the GI50 is > 100 µM (inactive) in the assay on MDA-MB-435; 15.6 µM (inactive) with CAKI-1; > 100 µM (inactive) with EKVX; 99.1 µM (inactive) in the assay on SN12C; > 100 µM (inactive) in the assay on A549; 19.3 µM (inactive) in the assay on ACHN. Also, the GI50 in the assay with NCI-H522 is 41.7 µM (inactive); with SNB-75, 13.3 µM (inactive).
Take `OC1(c2cccs2)c2cccc(Cl)c2C(O)(c2cccs2)c2c(Cl)cccc21` (stereo not given): the GI50 was 93.1 µM (inactive) in the assay on HOP-92; > 100 µM (inactive) in the assay on LOX IMVI; 34.4 µM (inactive) with 786-0; > 100 µM (inactive) in the assay on RPMI-8226; > 100 µM (inactive) in the assay with MDA-N; 81.5 µM (inactive) in the assay on SK-OV-3. The GI50 is > 100 µM (inactive) in the assay on SK-MEL-28; > 100 µM (inactive) in the assay with M14; > 100 µM (inactive) with RXF 393; > 100 µM (inactive) in the assay with COLO 205; > 100 µM (inactive) in the assay with HCC 2998; 33.1 µM (inactive) in the assay with SF-295. For the same molecule, the GI50 was > 100 µM (inactive) with MDA-MB-435; > 100 µM (inactive) with CAKI-1; > 100 µM (inactive) with EKVX; 93.8 µM (inactive) in the assay with SN12C; > 100 µM (inactive) in the assay with A549; > 100 µM (inactive) in the assay on ACHN. In addition, the GI50 in the assay on NCI-H522 was 96.6 µM (inactive); in the assay with SNB-75, 47.4 µM (inactive).
